A word on the IC50: it is the concentration needed to halve the response being measured.

The nature of this assay: Inhibition of L-type amino acid transporter in human LNCAP cells assessed as reduction in [3H]-L-Leucine uptake after 15 mins by liquid scintillation counting method. The class given is cell-based.

With `CC(=O)O[C@@H]1C[C@@H](C)[C@@]23C[C@@H](C[C@H](OC(=O)c4ccccc4)[C@]2(C)[C@H]1OC(=O)c1ccoc1)C(C)(C)O3`, the IC50 came out at 34.5 µM.

`C[C@@H]1CC[C@H](OC(=O)c2ccoc2)[C@@]2(C)[C@@H](OC(=O)c3ccccc3)C[C@@H]3C[C@]12OC3(C)C`: the IC50 came out at 19.7 µM.

Regarding `CC(=O)O[C@@H]1C[C@@H](C)[C@@]23C[C@@H]([C@@H](O)[C@H](OC(=O)c4ccccc4)[C@]2(C)[C@H]1OC(=O)c1ccoc1)C(C)(C)O3`, the IC50 was determined as 98.9 µM.

For the compound `CC(=O)O[C@@H]1[C@@H]2C[C@]3(OC2(C)C)[C@H](C)C[C@@H](OC(C)=O)[C@H](OC(=O)c2ccoc2)[C@@]3(C)[C@H]1OC(=O)c1ccccc1`, the IC50 turned out to be 15.2 µM.

In the case of `CC(=O)O[C@@H]1C[C@@H](C)[C@@]23C[C@@H](C[C@H](OC(=O)c4ccccc4)[C@]2(C)[C@H]1OC(=O)c1ccccc1)C(C)(C)O3`, the concentration for half-maximal inhibition (IC50) amounted to 7 µM.

As for `C[C@@H]1CC[C@H](OC(=O)c2ccccc2)[C@@]2(C)[C@@H](OC(=O)c3ccccc3)C[C@@H]3C[C@]12OC3(C)C`, the IC50 was found to be 27.6 µM.

`CC(=O)O[C@@H]1C[C@@H](C)[C@@]23C[C@@H](C(=O)[C@H](OC(=O)c4ccccc4)[C@]2(C)[C@H]1OC(=O)c1ccoc1)C(C)(C)O3`: the IC50 is 13.4 µM.

`CC(=O)O[C@@H]1C[C@@H](C)[C@@]23C[C@@H](C[C@H](OC(=O)c4ccoc4)[C@]2(C)[C@H]1OC(=O)c1ccoc1)C(C)(C)O3`: the IC50 was 75.3 µM.

Take `CC(=O)O[C@@H]1C[C@@H](C)[C@@]23C[C@@H]([C@@H](O)[C@H](OC(=O)c4ccccc4)[C@]2(C)[C@H]1OC(=O)c1ccccc1)C(C)(C)O3`: the IC50 was 82.3 µM.

Values taken from ChEMBL document CHEMBL4190198, “Celastrofurans A-G: Dihydro-β-agarofurans from the Australian Rainforest Vine Celastrus subspicata and Their Inhibitory Effect on Leucine Transport in Prostate Cancer Cells” (J Nat Prod, 2017).
